In PubChem BioAssay (NCI):
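Step 1: Grow cells in 96-well plates. Step 2: Expose to compound for 48 hours at 5 concentrations. Step 3: Interpolate endpoints linearly; if unreached, use highest concentration. The concentration for 50% growth inhibition is given as GI50. TGI marks complete inhibition of growth.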

Columns and labels:
Test in all cases: NCI tumour cell line growth inhibition, 48 h
COLO 205 colon = system: COLO 205 colon
IGROV1 ovarian = system: IGROV1 ovarian
HOP-62 NSCLC = system: HOP-62 NSCLC
SR leukemia = system: SR leukemia
NCI-H226 lung = system: NCI-H226 lung
SK-MEL-5 melanoma = system: SK-MEL-5 melanoma
HCT-15 colon = system: HCT-15 colon
NCI-H522 lung = system: NCI-H522 lung
DU-145 prostate = system: DU-145 prostate
MDA-MB-231 breast = system: MDA-MB-231 breast

| SMILES | TGI (COLO 205 colon) [µM] | TGI (IGROV1 ovarian) [µM] | TGI (HOP-62 NSCLC) [µM] | TGI (SR leukemia) [µM] | TGI (NCI-H226 lung) [µM] | TGI (SK-MEL-5 melanoma) [µM] | TGI (HCT-15 colon) [µM] | TGI (NCI-H522 lung) [µM] | GI50 (COLO 205 colon) [µM] | GI50 (IGROV1 ovarian) [µM] | GI50 (DU-145 prostate) [µM] | TGI (DU-145 prostate) [µM] | GI50 (SR leukemia) [µM] | GI50 (MDA-MB-231 breast) [µM] | TGI (MDA-MB-231 breast) [µM] | GI50 (SK-MEL-5 melanoma) [µM] | GI50 (HCT-15 colon) [µM] | GI50 (NCI-H522 lung) [µM] | GI50 (HOP-62 NSCLC) [µM] | GI50 (NCI-H226 lung) [µM] |
| --- | --- | --- | --- | --- | --- | --- | --- | --- | --- | --- | --- | --- | --- | --- | --- | --- | --- | --- | --- | --- |
| COc1ccc(C2=NOP(c3ccccc3)(c3ccccc3)(c3ccccc3)C2)cc1 | 23.5 | > 100 | > 100 | 34.9 | 98.4 | 28.8 | > 53 | 25.1 | – | – | – | – | – | – | – | – | – | – | – | – |
| COc1cc2c(cc1OC)-c1ncc3cc4c(cc3c1C2)OCO4 | > 100 | 59.6 | – | 15.3 | – | > 100 | > 100 | 48.4 | 61.1 | 25 | 25.3 | 53.6 | 2.7 | > 100 | > 100 | 7.65 | > 100 | 13.2 | – | – |
| C[N+](C)(C)CC1CCCC/C1=N\O (stereo not given) | > 100 | > 100 | > 100 | – | – | – | > 100 | > 100 | – | – | – | – | – | – | – | – | – | – | – | – |
| C#CCN(Cc1nc2cc(C(F)(F)F)ccc2nc1-c1ccccc1)c1ccc(F)c(F)c1 | > 100 | > 100 | > 100 | – | > 100 | 46.2 | > 100 | > 100 | 29.4 | 68.1 | 37.3 | > 100 | – | 21.9 | > 100 | 19.1 | 37.4 | 27.5 | > 100 | 92.5 |
| C#CCN(C)C(=O)N(CC#C)N=O | > 100 | > 100 | > 100 | – | – | > 100 | > 100 | > 100 | – | – | – | – | – | – | – | – | – | – | – | – |
| Nc1nc(N)c(-c2ccccc2)c(CCC(=O)Nc2ccc(Cl)cc2)n1 | > 100 | > 100 | > 100 | > 100 | > 100 | > 100 | > 100 | > 100 | – | – | – | – | – | – | – | – | – | – | – | – |
| CC(=O)O[C@H]1C=CC23OC(=O)[C@]1(C)[C@H]2[C@H](C(=O)O)C12CC(=O)[C@@](CO)(CC[C@H]13)C2 | > 100 | > 100 | > 100 | > 100 | > 100 | > 100 | > 100 | > 100 | – | – | – | – | – | – | – | – | – | – | – | – |
| OCC(O)C(OC1OC(CO)C(O)C(O)C1O)c1nn(-c2ccccc2)c2nc3cc(Cl)ccc3nc12 (stereo not given) | – | – | > 100 | > 100 | – | – | > 100 | > 100 | – | – | – | – | – | – | – | – | – | – | – | – |
| Cc1ccc(S(=O)OC23CC4CC(CC(C4)C2)C3)cc1 (stereo not given) | > 100 | 85.7 | > 100 | > 100 | > 100 | > 100 | > 100 | > 100 | – | – | – | – | – | – | – | – | – | – | – | – |
| CC1=C(C(=O)Nc2ccccc2)C(c2ccc(C(C)C)cc2)C(C(=O)Nc2ccccc2)=C(C)N1 | 28.6 | > 100 | 85.7 | 55.5 | 54.9 | 27 | 61.4 | 45.4 | – | – | – | – | – | – | – | – | – | – | – | – |
| Cn1cc(NC(=O)c2cc(NC(=O)CCCCCCC(=O)Nc3cc(C(=O)Nc4cc(C(=O)NCCC(=N)N)n(C)c4)n(C)c3)cn2C)cc1C(=O)NCCC(=N)N | 18.9 | 12.8 | – | – | – | 3.89 | > 100 | – | – | – | – | – | – | – | – | – | – | – | – | – |
| COc1cc(-c2nn(-c3ccc(NC(=O)c4cc(Cl)cc(Cl)c4)cc3)cc2-c2ccncc2)ccc1Cl | > 100 | > 100 | > 100 | > 100 | > 100 | > 100 | – | – | 6.61 | > 100 | > 100 | > 100 | > 100 | 9.93 | > 100 | 12 | – | – | 32 | > 100 |
| Cc1nnc(-c2ccc(-c3nc4ccccc4o3)cc2)o1 | > 100 | > 100 | > 100 | 68 | – | 65.3 | > 100 | > 100 | 76.8 | > 100 | 42.2 | > 100 | 25.8 | 36.3 | > 100 | 21 | 70.8 | > 100 | 42.8 | – |
| c1ccc2nc(OCCN3CC3)ccc2c1 | 5 | 10.8 | 34.1 | – | 38.6 | 26.8 | 46.1 | 4.04 | 1.98 | 2.24 | 14.8 | 28 | – | 7.95 | 26.3 | 12.9 | 13.3 | 1.71 | 15.2 | 16.6 |
| CCOC(=O)NC(=O)c1c[nH]c(=O)[nH]c1=O | > 100 | > 100 | > 100 | > 100 | > 100 | > 100 | > 100 | – | – | – | – | – | – | – | – | – | – | – | – | – |
| COC(=O)C1CC(C(=O)OC)c2nc3cc(C)c(C)cc3nc21 (stereo not given) | > 100 | > 100 | > 100 | – | > 100 | > 100 | > 100 | > 100 | – | – | – | – | – | – | – | – | – | – | – | – |
| Nc1ccc(C(=O)N/C(=C\c2cccc([N+](=O)[O-])c2)c2nc3c4c(ccc3[nH]2)C(=O)c2ccccc2C4=O)cc1 | > 100 | > 100 | > 100 | – | – | > 100 | > 100 | 71.2 | – | – | – | – | – | – | – | – | – | – | – | – |
| ClCC#CCSc1ncnc2c1ncn2CC#CCCl | 3.03 | 3.34 | 2.67 | 13.8 | – | 2.66 | 5.97 | 2.73 | 1.56 | 1.03 | 1.79 | 4.49 | 0.432 | 1.5 | 3.55 | 1.29 | 1.68 | 1.14 | 1.28 | – |
| CC(=O)N1CCN(CCOc2ccc(C3CCN(C4=Nn5c(nnc5C(F)(F)F)CC4)CC3)cc2)CC1 | > 70.6 | > 100 | > 100 | – | > 100 | 30.8 | > 100 | > 100 | 11.5 | 17.4 | 63 | > 100 | – | 7.83 | > 100 | 6.58 | 14 | 5 | 11.5 | 34.8 |
| C1C[OH+]CC[OH+]CC[OH+]CC[OH+]CC[OH+]CC[OH+]1.[Cl-].[Nb+5] | > 100 | > 100 | > 100 | – | > 100 | > 100 | > 100 | > 100 | > 100 | > 100 | – | – | – | – | – | > 100 | > 100 | > 100 | > 100 | > 100 |
